Reference: PMC9607427, “Novel 7-Chloro-(4-thioalkylquinoline) Derivatives: Synthesis and Antiproliferative Activity through Inducing Apoptosis and DNA/RNA Damage” (Pharmaceuticals, 2022)
pIC50: −log10 of the molar value.

What was measured:
[1] = tested on: HCT116p53−/− (HCT116 with deleted p53 gene); experiment: Cytotoxic MTS assay, HCT116p53−/−; format: cell-based, human
Method in brief: (§1)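 MTS metabolic staining of human tumour and fibroblast lines after 72 h compound exposure at 37 °C, 5% CO2; OD read at 490 nm after 1-4 h MTS incubation. IC50 taken as concentration giving 50% growth inhibition; technical duplicates, at least three biological replicates.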

[2] = tested on: BJLD (human lung fibroblast doxorubicin-resistant); experiment: Cytotoxic MTS assay, BJLD; format: cell-based
Method in brief: as §1

U2OS (osteosarcoma) = experiment: Cytotoxic MTS assay, U2OS; format: cell-based, human
Method in brief: as §1

CCRF-CEM lymphoblasts = experiment: Mitosis, pH3Ser10 antibody labeling, flow cytometry; format: cell-based, human; conditions: 24 h
Description: The effect of compounds on cell cycle distribution was determined to gain insights into the mechanism of its antiproliferative activity. […] For example, as compared with control, the percentage of cells in G2/M phases was increased by treatment with 5 × IC50 μM of compounds for 24 h (Table 4). […] As shown in (Table 4), there was a marked increase in the sub-G1 from 2.91 in untreated cells. 5-Bromo-2-deoxyuridine (BrDU) is incorporated into newly synthesized DNA, and 5-bromouridine (BrU) pulse labeling is therefore commonly used as a proliferation marker. Low BrDU and BrU incorporation into the DNA or RNA, respectively, of treated cells with all compounds at 5 × IC50 reflected inhibition of DNA and RNA synthesis, indicating irreversible apoptotic changes. The percentage of […] cells incorporating 5-bromouridine is proportional to the transcriptional activity of CCRF-CEM cells.
CCRF-CEM cells were seeded at a density of 1 × 10^6 cells per one mL in 6-well plates (TTP) and were cultivated with compounds at concentrations corresponding to 1 × or 5 × IC50 value. Together with the compounds-treated cells, a vehicle-treated sample was harvested at the same time point. After 24 h, the cells were washed with cold phosphate-buffered saline (PBS) and fixed in 70% ethanol added dropwise and stored overnight at −20 °C. Afterward, cells were washed in hypotonic citrate buffer, treated with RNase (50 µg mL^−1), and stained with propidium iodide. Flow cytometry using a 488 nm single beam laser (Becton Dickinson) was used for measurement. The cell cycle was analyzed by the software ModFitLT (Verity), and apoptosis was measured in a logarithmic model expressing the percentage of the particles with propidium content lower than cells in the G0/G1 phase (<G1) of the cell cycle. Half of the sample was used for pH3Ser10 antibody (Sigma) labeling and subsequent flow cytometry analysis of the cells in mitosis.

[3] = tested on: CEM-DNR bulk (daunorubicin-resistant subline of CCRF-CEM cells); experiment: Cytotoxic MTS assay, CEM-DNR; format: cell-based, human
Method in brief: as §1

[4] = tested on: MRC-5LD (noncancerous human lung fibroblasts doxorubicin-resistant); experiment: Cytotoxic MTS assay, MRC-5LD; format: cell-based
Method in brief: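 Cells seeded at 25,000–35,000 cells/mL were exposed to compounds (four-fold dilutions from DMSO) for 72 h at 37 °C, 5% CO2. Viability was read by MTS metabolic staining, OD at 490 nm after 1–4 h, and IC50 taken as the concentration giving 50% growth inhibition.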

[5] = tested on: K562-TAX (chronic myeloid leukemia paclitaxel-resistant subline); experiment: Cytotoxic MTS assay, K562-TAX; format: cell-based, human
Method in brief: as §1

[6] = 5 × IC50 (second value of cell)

| SMILES | pIC50 [1] | pIC50 [2] | pIC50 (U2OS (osteosarcoma)) | M (Mitosis Phospho-Histone3 (Ser10)), % of Total Cellular Populations (CCRF-CEM lymphoblasts; 1 × IC50 (first value of cell)) [%] | M (Mitosis Phospho-Histone3 (Ser10)), % of Total Cellular Populations (CCRF-CEM lymphoblasts; [6]) [%] | pIC50 [3] | pIC50 [4] | pIC50 [5] |
| --- | --- | --- | --- | --- | --- | --- | --- | --- |
| Cc1ccc([N+](=O)[O-])c(C(=O)OCCS(=O)(=O)c2cc[n+]([O-])c3cc(Cl)ccc23)c1 [Compound 70, 2-[(N-Oxide 7-chloroquinolin-4-yl)sulfonyl]ethyl-5-methyl-2-nitrobenzoate] | 5.06 | < 4.30 | 5.00 | 1.57 | 1.08 | 4.76 | 5.19 | 5.16 |
| O=C(OCCS(=O)(=O)c1cc[n+]([O-])c2cc(Cl)ccc12)c1ccc(C(F)(F)F)cc1 [Compound 72, 2-[(N-Oxide 7-chloroquinolin-4-yl)sulfonyl]ethyl-4-(trifluoromethyl)benzoate] | 4.78 | 4.57 | 4.74 | 1.61 | 5.28 | 4.60 | 4.86 | 5.22 |
| COc1ccc(C(=O)OCCS(=O)(=O)c2cc[n+]([O-])c3cc(Cl)ccc23)cc1[N+](=O)[O-] [Compound 69, 2-[(N-Oxide 7-chloroquinolin-4-yl)sulfonyl]ethyl-4-methoxy-3-nitrobenzoate] | 4.95 | 4.71 | 4.99 | 1.61 | 1.6 | 4.72 | 5.56 | 5.14 |
| COc1cc(OC)c(C(=O)OCCS(=O)(=O)c2cc[n+]([O-])c3cc(Cl)ccc23)cc1OC [Compound 66, 2-[(N-Oxide 7-chloroquinolin-4-yl)sulfonyl]ethyl-2,4,5-trimethoxybenzoate] | 5.10 | 4.96 | 5.08 | 1.64 | 2.29 | 5.10 | 5.64 | 5.20 |
| COc1ccccc1C(=O)OCCS(=O)(=O)c1cc[n+]([O-])c2cc(Cl)ccc12 [Compound 68, 2-[(N-Oxide 7-chloroquinolin-4-yl)sulfonyl]ethyl-2-methoxybenzoate] | 5.08 | 5.00 | 5.16 | 1.73 | 2.11 | 4.91 | 5.38 | 5.33 |
| COc1ccc(C(=O)OCCS(=O)(=O)c2cc[n+]([O-])c3cc(Cl)ccc23)cc1 [Compound 63, 2-[(N-Oxide 7-chloroquinolin-4-yl)sulfonyl]ethyl-4-methoxybenzoate] | 4.79 | 4.92 | 5.24 | 1.66 | 1.53 | 5.06 | 5.54 | 5.33 |
| COc1ccc(OC)c(C(=O)OCCS(=O)(=O)c2cc[n+]([O-])c3cc(Cl)ccc23)c1 [Compound 65, 2-[(N-Oxide 7-chloroquinolin-4-yl)sulfonyl]ethyl-2,5-dimethoxybenzoate] | 5.08 | 5.01 | 5.12 | 1 | 1.66 | 5.05 | 5.69 | 5.18 |
